Measurements taken from PubChem BioAssay (NCI).
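All cell lines were grown in 96-well plates and treated with compound for 48 hours. Here, GI50 denotes the concentration required for 50% inhibition of growth. TGI: total growth inhibition.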

Tests used:
Experiment in all cases: NCI-60 cell line screen, 48 h
[1] = test system: 786-0 renal
[2] = test system: A549 NSCLC
[3] = test system: ACHN renal
[4] = test system: BT-549 breast
[5] = test system: CAKI-1 renal
[6] = test system: COLO 205 colon
[7] = test system: DU-145 prostate
[8] = test system: EKVX NSCLC
[9] = test system: HCC-2998 colon
[10] = test system: HCT-116 colon
[11] = test system: HCT-15 colon
[12] = test system: HL-60(TB) leukemia
[13] = test system: HOP-62 NSCLC
[14] = test system: HOP-92 NSCLC
[15] = test system: HS 578T breast
[16] = test system: IGROV1 ovarian
[17] = test system: K-562 leukemia
[18] = test system: KM12 colon
[19] = test system: LOX IMVI melanoma
[20] = test system: M14 melanoma
[21] = test system: MCF7 breast
[22] = test system: MDA-MB-231 breast
[23] = test system: MDA-MB-435
[24] = test system: NCI-H23 lung
[25] = test system: NCI-H460 lung
[26] = test system: NCI-H522 lung
[27] = test system: NCI/ADR-RES ovarian
[28] = test system: OVCAR-3 ovarian
[29] = test system: OVCAR-4 ovarian
[30] = test system: OVCAR-5 ovarian
[31] = test system: OVCAR-8 ovarian
[32] = test system: PC-3 prostate
[33] = test system: RPMI-8226 leukemia
[34] = test system: RXF 393 renal
[35] = test system: SF-268 CNS
[36] = test system: SF-295 CNS
[37] = test system: SF-539 CNS
[38] = test system: SK-MEL-2 melanoma
[39] = test system: SK-MEL-28 melanoma
[40] = test system: SK-MEL-5 melanoma
[41] = test system: SK-OV-3 ovarian
[42] = test system: SN12C renal
[43] = test system: SNB-19 CNS
[44] = test system: SR leukemia
[45] = test system: SW-620 colon
[46] = test system: T-47D breast
[47] = test system: TK-10 renal
[48] = test system: U251 CNS
[49] = test system: UACC-257 melanoma
[50] = test system: UACC-62 melanoma
[51] = test system: UO-31 renal

In the case of `Cn1c(-c2c(N)n(Cc3ccc(Cl)cc3)c3nc(C#N)c(C#N)nc23)nc2ccccc21`, the GI50 [1] is reported as 7.69 µM, the TGI [1] is reported as 17.4 µM and the GI50 [2] is reported as 5.02 µM. It also gave a TGI [2] of 19.8 µM, a GI50 [3] of 1.5 µM and a TGI [3] of 6.38 µM. The GI50 [4] was 6.44 µM, the TGI [4] was 15.6 µM and the GI50 [5] was 7.15 µM. For the same compound, the TGI [5] was 18.7 µM, the GI50 [6] was 3.13 µM and the TGI [6] was 16.4 µM. For the same compound, the GI50 [7] was 5.94 µM, the TGI [7] was 17.4 µM and the GI50 [8] was 7.04 µM. The TGI [8] was 46.1 µM, the GI50 [9] was 1.08 µM and the TGI [9] was 3.57 µM. The GI50 [10] was 8.52 µM, the TGI [10] was > 50 µM and the GI50 [11] was 4.55 µM. The TGI [11] was > 50 µM, the GI50 [12] was 16.9 µM and the TGI [12] was > 50 µM. The GI50 [13] was 11.7 µM, the TGI [13] was > 50 µM and the GI50 [14] was 2.35 µM. The TGI [14] was 10.1 µM, the GI50 [15] was 4 µM and the TGI [15] was 24.5 µM. It also gave a GI50 [16] of 1.54 µM, a TGI [16] of 7.71 µM and a GI50 [17] of 17.3 µM. For the same compound, the TGI [17] was > 50 µM, the GI50 [18] was 2.76 µM and the TGI [18] was 32.2 µM. It also gave a GI50 [19] of 1.14 µM, a TGI [19] of 5.68 µM and a GI50 [20] of 10.6 µM. For the same compound, the TGI [20] was 42.6 µM, the GI50 [21] was 3.94 µM and the TGI [21] was > 50 µM. The GI50 [22] was 1.69 µM, the TGI [22] was 9.41 µM and the GI50 [23] was 7.63 µM. For the same compound, the TGI [23] was > 50 µM, the GI50 [24] was 1.18 µM and the TGI [24] was 2.48 µM. The GI50 [25] was 2.7 µM, the TGI [25] was 25.7 µM and the GI50 [26] was 2.83 µM. The TGI [26] was 15.6 µM, the GI50 [27] was 2.36 µM and the TGI [27] was 10.8 µM. For the same compound, the GI50 [28] was 1.37 µM, the TGI [28] was 6.2 µM and the GI50 [29] was 3.89 µM. The TGI [29] was 18.6 µM, the GI50 [30] was 6.74 µM and the TGI [30] was 16 µM. The GI50 [31] was 5.37 µM, the TGI [31] was 23.4 µM and the GI50 [32] was 4.62 µM. For the same compound, the TGI [32] was > 50 µM, the GI50 [33] was 1.73 µM and the TGI [33] was > 50 µM. It also gave a GI50 [34] of 0.567 µM, a TGI [34] of 4.67 µM and a GI50 [35] of 16.3 µM. The TGI [35] was > 50 µM, the GI50 [36] was 6.28 µM and the TGI [36] was 40.5 µM. For the same compound, the GI50 [37] was 6.64 µM, the TGI [37] was 14.5 µM and the GI50 [38] was > 50 µM. The TGI [38] was > 50 µM, the GI50 [39] was 2.86 µM and the TGI [39] was 13.9 µM. For the same compound, the GI50 [40] was 5.24 µM, the TGI [40] was 16.5 µM and the GI50 [41] was 1.89 µM. For the same compound, the TGI [41] was 5.67 µM, the GI50 [42] was 2.57 µM and the TGI [42] was 10.3 µM. The GI50 [43] was 12.3 µM, the TGI [43] was 46.5 µM and the GI50 [44] was 8.26 µM. The TGI [44] was > 50 µM, the GI50 [45] was 5.26 µM and the TGI [45] was > 50 µM. The GI50 [46] was 1.83 µM, the TGI [46] was 14.5 µM and the GI50 [47] was 6.9 µM. For the same compound, the TGI [47] was 15.8 µM, the GI50 [48] was 3.76 µM and the TGI [48] was 13 µM. For the same compound, the GI50 [49] was 13.5 µM, the TGI [49] was > 50 µM and the GI50 [50] was 2.26 µM. For the same compound, the TGI [50] was 9.71 µM, the GI50 [51] was 5.35 µM and the TGI [51] was 13.2 µM.
